Results as given in PubChem BioAssay (NCI).
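Compound exposure: 48 hours, 5 concentrations, 96-well plates. TGI denotes the concentration required for complete inhibition of growth.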

Columns and labels:
Experiment in all cases: inhibition of tumour cell growth, NCI panel, 48 h
NCI-H522 lung = test system: NCI-H522 lung
CAKI-1 renal = test system: CAKI-1 renal
786-0 renal = test system: 786-0 renal
SK-MEL-2 melanoma = test system: SK-MEL-2 melanoma
CCRF-CEM leukemia = test system: CCRF-CEM leukemia
HOP-62 NSCLC = test system: HOP-62 NSCLC
NCI-H23 lung = test system: NCI-H23 lung
OVCAR-4 ovarian = test system: OVCAR-4 ovarian
OVCAR-8 ovarian = test system: OVCAR-8 ovarian
U251 CNS = test system: U251 CNS
HCC-2998 colon = test system: HCC-2998 colon
MOLT-4 leukemia = test system: MOLT-4 leukemia
SN12C renal = test system: SN12C renal
HS 578T breast = test system: HS 578T breast
T-47D breast = test system: T-47D breast
MDA-MB-231 breast = test system: MDA-MB-231 breast
NCI/ADR-RES ovarian = test system: NCI/ADR-RES ovarian
HL-60(TB) leukemia = test system: HL-60(TB) leukemia
UACC-257 melanoma = test system: UACC-257 melanoma
HOP-92 NSCLC = test system: HOP-92 NSCLC
MALME-3M melanoma = test system: MALME-3M melanoma
SF-295 CNS = test system: SF-295 CNS
RPMI-8226 leukemia = test system: RPMI-8226 leukemia
SK-OV-3 ovarian = test system: SK-OV-3 ovarian
PC-3 prostate = test system: PC-3 prostate
EKVX NSCLC = test system: EKVX NSCLC
SF-268 CNS = test system: SF-268 CNS
SK-MEL-5 melanoma = test system: SK-MEL-5 melanoma
IGROV1 ovarian = test system: IGROV1 ovarian
UACC-62 melanoma = test system: UACC-62 melanoma
NCI-H460 lung = test system: NCI-H460 lung
HT29 colon = test system: HT29 colon
TK-10 renal = test system: TK-10 renal
A498 renal = test system: A498 renal
RXF 393 renal = test system: RXF 393 renal
K-562 leukemia = test system: K-562 leukemia
BT-549 breast = test system: BT-549 breast
COLO 205 colon = test system: COLO 205 colon
SNB-75 CNS = test system: SNB-75 CNS
SK-MEL-28 melanoma = test system: SK-MEL-28 melanoma
HCT-116 colon = test system: HCT-116 colon
UO-31 renal = test system: UO-31 renal
MDA-MB-435 = test system: MDA-MB-435
DU-145 prostate = test system: DU-145 prostate
M14 melanoma = test system: M14 melanoma
OVCAR-5 ovarian = test system: OVCAR-5 ovarian
A549 NSCLC = test system: A549 NSCLC
NCI-H226 lung = test system: NCI-H226 lung
SR leukemia = test system: SR leukemia
ACHN renal = test system: ACHN renal
HCT-15 colon = test system: HCT-15 colon
SNB-19 CNS = test system: SNB-19 CNS
SW-620 colon = test system: SW-620 colon
LOX IMVI melanoma = test system: LOX IMVI melanoma
MCF7 breast = test system: MCF7 breast
KM12 colon = test system: KM12 colon
SF-539 CNS = test system: SF-539 CNS
MDA-N = test system: MDA-N
OVCAR-3 ovarian = test system: OVCAR-3 ovarian

Work on `O=c1oc2ccccc2cc1-c1nnc(-c2ccccc2)s1` yielded a TGI (NCI-H522 lung) greater than 100 µM, a TGI (CAKI-1 renal) greater than 100 µM and a TGI (786-0 renal) greater than 66.6 µM. The TGI (SK-MEL-2 melanoma) was greater than 100 µM, the TGI (CCRF-CEM leukemia) was greater than 100 µM and the TGI (HOP-62 NSCLC) was greater than 57.1 µM. It also gave a TGI (NCI-H23 lung) greater than 100 µM, a TGI (OVCAR-4 ovarian) greater than 100 µM and a TGI (OVCAR-8 ovarian) greater than 69.4 µM. The TGI (U251 CNS) was 26.4 µM, the TGI (HCC-2998 colon) was greater than 100 µM and the TGI (MOLT-4 leukemia) was greater than 100 µM. It also gave a TGI (SN12C renal) greater than 100 µM, a TGI (HS 578T breast) greater than 100 µM and a TGI (T-47D breast) greater than 85.2 µM. It also gave a TGI (MDA-MB-231 breast) of 46.3 µM, a TGI (NCI/ADR-RES ovarian) greater than 67.2 µM and a TGI (HL-60(TB) leukemia) of 3.5 µM. For the same compound, the TGI (UACC-257 melanoma) was greater than 100 µM, the TGI (HOP-92 NSCLC) was greater than 100 µM and the TGI (MALME-3M melanoma) was greater than 100 µM. For the same compound, the TGI (SF-295 CNS) was greater than 71 µM, the TGI (RPMI-8226 leukemia) was greater than 100 µM and the TGI (SK-OV-3 ovarian) was greater than 90 µM. The TGI (PC-3 prostate) was greater than 100 µM, the TGI (EKVX NSCLC) was greater than 100 µM and the TGI (SF-268 CNS) was greater than 100 µM. The TGI (SK-MEL-5 melanoma) was greater than 100 µM, the TGI (IGROV1 ovarian) was greater than 66.3 µM and the TGI (UACC-62 melanoma) was greater than 100 µM. For the same compound, the TGI (NCI-H460 lung) was greater than 100 µM, the TGI (HT29 colon) was greater than 100 µM and the TGI (TK-10 renal) was greater than 53.8 µM. It also gave a TGI (A498 renal) of 43.6 µM, a TGI (RXF 393 renal) greater than 54.6 µM and a TGI (K-562 leukemia) greater than 100 µM. For the same compound, the TGI (BT-549 breast) was greater than 100 µM, the TGI (COLO 205 colon) was greater than 100 µM and the TGI (SNB-75 CNS) was 45.6 µM. It also gave a TGI (SK-MEL-28 melanoma) greater than 100 µM, a TGI (HCT-116 colon) greater than 100 µM and a TGI (UO-31 renal) greater than 100 µM. The TGI (MDA-MB-435) was 12.9 µM, the TGI (DU-145 prostate) was greater than 100 µM and the TGI (M14 melanoma) was greater than 100 µM. The TGI (OVCAR-5 ovarian) was greater than 100 µM, the TGI (A549 NSCLC) was greater than 100 µM and the TGI (NCI-H226 lung) was greater than 100 µM. It also gave a TGI (SR leukemia) greater than 36.8 µM, a TGI (ACHN renal) greater than 100 µM and a TGI (HCT-15 colon) greater than 100 µM. It also gave a TGI (SNB-19 CNS) greater than 84.7 µM, a TGI (SW-620 colon) greater than 100 µM and a TGI (LOX IMVI melanoma) greater than 100 µM. It also gave a TGI (MCF7 breast) greater than 100 µM, a TGI (KM12 colon) of 36.2 µM and a TGI (SF-539 CNS) greater than 41.8 µM. The TGI (MDA-N) was greater than 78.1 µM and the TGI (OVCAR-3 ovarian) was greater than 58.5 µM.
